Patent US20240285808A1, “MOLECULAR PROBES FOR IN VIVO DETECTION OF ALDEHYDES” (The General Hospital Corporation, priority 2021, published 2024)
Values joined by “and” are separate entries in the source; they are usually repeats but may differ in a detail not shown here. Equal entries are not always repeated.

Columns and labels:
[1] = Relaxivity measurements in PBS; assay type: physicochemical; conditions: 1.4 T, 37° C.
[2] = molecular target: bovine serum albumin (BSA) (Bos taurus, UniProt P02769); assay: Relaxivity measurements with BSA; assay type: binding; conditions: 1.4 T, 37° C., BSA 10 mg/mL
Chain of bovine serum albumin (BSA) (P02769 25-607): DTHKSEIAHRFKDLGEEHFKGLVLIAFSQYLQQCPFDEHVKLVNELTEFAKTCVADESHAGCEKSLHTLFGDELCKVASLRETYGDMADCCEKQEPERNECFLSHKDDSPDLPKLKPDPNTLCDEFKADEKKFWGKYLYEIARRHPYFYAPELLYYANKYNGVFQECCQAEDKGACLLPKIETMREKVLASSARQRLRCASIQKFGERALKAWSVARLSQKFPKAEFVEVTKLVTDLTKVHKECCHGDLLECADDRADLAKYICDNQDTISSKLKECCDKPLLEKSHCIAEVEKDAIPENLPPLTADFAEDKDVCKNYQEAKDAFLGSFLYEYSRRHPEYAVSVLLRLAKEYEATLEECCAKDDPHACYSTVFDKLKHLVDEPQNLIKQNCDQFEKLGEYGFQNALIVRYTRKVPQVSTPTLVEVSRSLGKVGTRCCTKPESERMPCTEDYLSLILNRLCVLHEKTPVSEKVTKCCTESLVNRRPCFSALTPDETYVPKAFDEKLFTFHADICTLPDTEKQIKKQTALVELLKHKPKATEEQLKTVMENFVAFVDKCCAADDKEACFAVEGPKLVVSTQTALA

[3] = molecular target: T1, BSA-ALD (oxidized bovine serum albumin containing allysine aldehyde groups) (Bos taurus, UniProt P02769); assay: Relaxivity measurements with BSA-Ald; assay type: binding; conditions: for r1, +BSA-Ald / r1, Bound to BSA-Ald: 1.4 T; for r1, +BSA-Ald / r1, Bound to BSA-Ald / increase of r1 in BSA^Ald compared to PBS value: 37° C.; for r1, +BSA-Ald: BSA-Ald 10 mg/mL; for r1, Bound to BSA-Ald: protein-bound species after NaBH3CN and ultrafiltration; for increase of r1 in BSA^Ald compared to PBS value: 1.41 T
T1 construct: made in house; host or cells: no expression host: BSA oxidised chemically with sodium ascorbate, ferric chloride and H2O2, then desalted on PD-10
T1 sequence (P02769 25-607): as above

[4] = test system: liver of CCl4 injured mice; assay type: in vivo, mouse; conditions: for ΔCNR (liver to muscle): 100 μmol/kg i.v., group mean; for ΔCNR of liver, pair-wise comparison: individual mice ID 1-6
Procedure: CCl4 Liver Fibrosis Model:
Male C57BL/6 mice (Charles River Laboratories, Wilmington, MA) were treated with carbon tetrachloride for 12 weeks (0.1 ml of 20% CCl4 in olive oil the first week, 30% the second week, and 40% from weeks 3-12) by oral gavage, 2-3 times per week. Control mice were fed vehicle (olive oil) only.
A total of 53 C57BL/6 mice were included to study CCl4 induced hepatic fibrosis: • A. CCl4 for 12 weeks (n=20). Each mouse was imaged with probe 1 and then imaged again 24 hours later with probe 2. Probe 1 and Probe 2 were randomly chosen from GdDOTA, GdCHyd, Mn-12, Gd-9 and Gd-10. • B. Vehicle treated control (n=20). Each mouse was imaged with probe 1 and then imaged again 24 hours later with probe 2. Probe 1 and Probe 2 were randomly chosen from GdDOTA, Mn-12, GdCHyd, Gd-9, Gd-10. • C. CCl4 for 12 weeks (n=3, another 3 pair-wise comparison have been done in group A). Each mouse was imaged with probe 1 and then imaged again 24 hours later with probe 2. […] Each mouse was imaged with probe 1 and then imaged again 24 hours later with probe 2. Probe 1 and Probe 2 were randomly choosing from Gd-9 and Gd-10. • E. CCl4 for 12 weeks (n=3). Each mouse was imaged with Gd-9. After 24 hours, the same mouse was first injected with 1000 μmol/kg of Yb-9 and then injected with 100 μmol/kg of Gd-9 15 min after the Yb-9 injection.
Animals were anesthetized with isoflurane (1-2%) and placed in a specially designed cradle with body temperature maintained at 37° C. The inhaled isoflurane level was adjusted to maintain a respiration rate of 60±5 breaths per minute. The tail vein was cannulated for intravenous (i.v.) delivery of the contrast agent while the animal was positioned in the scanner. Imaging was performed at 4.7 T using a small bore animal scanner with a custom-built volume coil. Mice were imaged with a dose of 100 μmol/kg from 30 mM stock solution of Gd or Mn complex.
For mice liver imaging, a series of baseline images (3D T1 weighted fast low angle shot magnetic resonance imaging (FLASH)) were first acquired (repetition time/echo time=15/2 ms; flip angle, 30°; field of view, 48×30 mm^2; matrix size, […]; slice thickness, 0.25 mm; acquisition time, 3 minutes 20 seconds), then a bolus of Gd or Mn complex was administered i.v. and imaging performed for a period of 45 min p.i. with the repetition acquisition of 3D T1 weighted FLASH sequences. Following the imaging session, animals were sacrificed (75 min p.i.) and liver tissue was subjected to histopathologic analysis.
For liver imaging analysis, a region of interest (ROI) was manually traced encompassing the liver parenchyma while avoiding major blood vessels. A second ROI was placed on the dorsal muscle visible in the same image slice to quantify the signal intensity in the muscle for comparison. Seven ROIs were placed in the field of view without any tissue (air) to measure the variation in background signal. More than 20 axial slices per mouse across the entire liver were analyzed in this fashion. […] Contrast to noise ratio (CNR) was calculated by measuring the difference in signal intensity (SI) between liver and muscle and normalizing to the standard deviation of the signal in the air, eq 21. ΔCNR was calculated by subtracting CNR measured prior to probe injection (CNRPre) from CNR measured after injection (CNRPost), eq 22. […]

[5] = CCl4 injured mice, 45 min post injection

SMILES | r1, PBS [1] | r1, +BSA [2] | r1, +BSA-Ald [3] | fold higher relaxivity than Gd-CHyd [3] | higher protein-bound relaxivity than monobinder Gd-CHyd [3] | r1, Bound to BSA-Ald [3] | increase of r1 in BSA^Ald compared to PBS value [3] | fold higher ΔCNR compared to Gd-CHyd (monobinder) ([4]; CCl4 injured mice, 45 min p.i.) | ΔCNR (liver to muscle) [4, 5] | ΔCNR of liver, With blocking ([4]; CCl4 injured mice, 45 min post injection, blocking dose of Yb-9 (1000 μmol/kg) 15 min before, individual mice ID 1-3) | ΔCNR of liver, Without blocking ([4]; CCl4 injured mice, 45 min post injection, individual mice ID 1-3) | ΔCNR of liver, pair-wise comparison [4, 5] | turn-on in relaxivity upon binding to allysine (BSA-Ald bound vs unbound) [3] | turn on in relaxivity ([3]; 1.4T) | fold higher DCNR in CCl4 treated vs vehicle treated mice ([4]; 20 minutes post injection)
CN(C)C(CCC(=O)NCCCN1CCN(CC(=O)[O-])Cc2cccc(n2)CN(CC(=O)[O-])CC1)C(=O)O.[Mn+2] (stereo not drawn) [Mn-18] | 3.1 mM⁻¹ s⁻¹ | 3.5 mM⁻¹ s⁻¹ | 3.6 mM⁻¹ s⁻¹ | – | – | – | – | – | – | – | – | – | – | – | –
NN1CCN(C(=O)CCC(C(=O)[O-])N2CCN(CC(=O)[O-])CCN(CC(=O)[O-])CCN(C(CCC(=O)N3CCN(N)CC3)C(=O)[O-])CC2)CC1.[Gd+3] (stereo not drawn) [Gd-9, cis-1,4-Gd-(CHyd)2] | 6.6 mM⁻¹ s⁻¹ | 6.6 mM⁻¹ s⁻¹ and 6.5 mM⁻¹ s⁻¹ | 11.7 mM⁻¹ s⁻¹ and 11.2 mM⁻¹ s⁻¹ | 2.3 fold | 50% | 17.7 mM⁻¹ s⁻¹ | 77% | 10 fold | 2.2±0.8 and 2.2 ± 0.9 | 0.1 (2×) and 0.3 | 3.6 and 2.7 and 3.0 | 1.9 (2×) and 3.2 and 1.3 and 2.1 and 1.5 | – | – | –
NOC(CCC(=O)NCCCN1CCN(CC(=O)[O-])Cc2cccc(n2)CN(CC(=O)[O-])CC1)C(=O)O.[Mn+2] (stereo not drawn) [Mn-16] | 3.1 mM⁻¹ s⁻¹ | 3.4 mM⁻¹ s⁻¹ | 7.7 mM⁻¹ s⁻¹ | – | – | 12.7 mM⁻¹ s⁻¹ | – | – | – | – | – | – | 4 fold | – | –
NNC(CCC(=O)NCCCN1CCN(CC(=O)[O-])Cc2cccc(n2)CN(CC(=O)[O-])CC1)C(=O)O.[Mn+2] (stereo not drawn) [Mn-15] | 3.1 mM⁻¹ s⁻¹ | 3.6 mM⁻¹ s⁻¹ | 5.9 mM⁻¹ s⁻¹ | – | – | 12.7 mM⁻¹ s⁻¹ | 90% | – | 1.2 ± 0.2 | – | – | – | 4 fold and ~3 fold | 270% | 3 fold
NNCC(=O)NCCCN1CCN(CC(=O)[O-])Cc2cccc(n2)CN(CC(=O)[O-])CC1.[Mn+2] [Mn-17] | 3.0 mM⁻¹ s⁻¹ | 3.5 mM⁻¹ s⁻¹ | 5.6 mM⁻¹ s⁻¹ | – | – | 11.4 mM⁻¹ s⁻¹ | 90% | – | – | – | – | – | 4 fold and ~3 fold | – | –
NN1CCN(C(=O)CCC(C(=O)[O-])N2CCN(CC(=O)[O-])CCN(C(CCC(=O)N3CCN(N)CC3)C(=O)[O-])CCN(CC(=O)[O-])CC2)CC1.[Gd+3] (stereo not drawn) [Gd-10, trans-1,7-Gd-(CHyd)2] | 6.6 mM⁻¹ s⁻¹ | 6.6 mM⁻¹ s⁻¹ | 9.0 mM⁻¹ s⁻¹ | – | – | 18.7 mM⁻¹ s⁻¹ | 36% | – | 1.3±0.4 and 1.5 ± 0.9 | – | – | 1.3 and 2.3 and 1.2 and 0.9 and 1.4 and 1.0 | – | – | –
